# Starred links: 1 amine or outer side, 2 acyl side, 3 side chain; linkers in the order of their positions; H or OH if unused. Non-standard residues stand in square brackets, D forms with d. Residues, ends and D or L forms follow the SMILES beside them. *: point of attachment. FITC = O=C1OC2(c3ccc(O)cc3Oc3cc(O)ccc32)c2ccc(NC(=S)*)cc21; DOTA = O=C(O)CN1CCN(CC(=O)O)CCN(CC(=O)*)CCN(CC(=O)O)CC1; X2 = O=C(O)CCC(NC(=O)NC(CCCCN*)C(=O)O)C(=O)O; 2Nal = N[CH](Cc1ccc2ccccc2c1)C(=O)O; X1 = O=C(C1CCC(CN[*:1])CC1)[*:2]
# Tests used:
# [1] = design: method as in PMID 16194449; conditions: free dye; cited from earlier work
# PSMA = target: T1, PSMA (Homo sapiens, UniProt Q04609); assay: Competitive cell binding assay (radioligand 68Ga-PSMA-10); conditions: free ligands, mean ± SD, n = 3; for Ki: Ki=IC50/(1+cradioligand/Kd); for IC50: radioligand 68Ga-PSMA-10, 0.75 nmol/L
# T1 construct: LNCaP cells (CRL-1740; ATCC; PSMA-positive); host or cells: LNCaP cells
# Experimental: (§1) LNCaP cells (CRL-1740; ATCC; PSMA-positive) and PC-3 cells (CRL-1435; ATCC; PSMA-negative) were cultured in RPMI medium (Thermo Fisher Scientific, Waltham, MA, USA) supplemented with 10% fetal calf serum and 2 mmol/L L-glutamine (all from (Thermo Fisher Scientific, Waltham, MA, USA) ) at 37 °C in humidified air with 5% CO2. Cells were harvested using trypsin-ethylenediaminetetraacetic acid (trypsin-EDTA; 0.25% trypsin, 0.02% EDTA, Invitrogen, Waltham, MA, USA). Cell line authentication was regularly performed. Binding affinities and internalization profiles of the ^68Ga-labeled compounds were determined in competitive cell binding assays and internalization experiments as described previously.
# LNCaP cells [2] = assay: Specific cell surface binding and internalization of 68Ga-labeled compounds; assay type: cell-based; conditions: 68Ga-labeled compounds; blockage with 500 µmol/L 2-PMPA; mean ± SD, n = 3
# Experimental: as §1
# [3] = Lipophilicity, logD at pH 7.4 in n-octanol/PBS; assay type: physicochemical; conditions: 68Ga-labeled ligand
# Experimental: The synthesis was performed according to previously published protocols. Details on synthesis and analytical data of the compounds are provided in the Supplementary Materials (Compound Synthesis and Analytical Characterization). […] Using 30% NaOH (Sigma-Aldrich, Darmstadt, Germany) and 10% NaOH (Sigma-Aldrich, Darmstadt, Germany), the pH was adjusted to 3.8. The reaction mixture was incubated at 98 °C for 5–10 min. The radiochemical yield was analyzed by reversed-phase high-performance liquid chromatography (RP-HPLC) or reversed-phase thin-layer chromatography (RP-TLC, 60 RP-18 F254S, Sigma-Aldrich, Darmstadt, Germany) with 0.5 M ammonium acetate/methanol (1:1) as the mobile phase. The lipophilicity of the ^68Ga-labeled compounds was determined using the 2-phase system n-octanol and PBS.
# LNCaP cells [4] = test system: LNCaP cells; design: method as in PMID 26878194; conditions: cited from earlier work
# [5] = design: method as in PMID 25883127; conditions: n-octanol/PBS; cited from earlier work
# [6] = test system: LNCaP-tumor bearing BALB/c nu/nu mice; conditions: cited from earlier work; for tumor enhancement after dye conjugation: compared with PSMA-927
# [7] = design: method as in PMID 29752180; conditions: twelve weeks after the first dose; cited from earlier work
# [8] = design: method as in PMID 34161051; conditions: 831 patients; cited from earlier work
# T1 sequence (Q04609 whole entry): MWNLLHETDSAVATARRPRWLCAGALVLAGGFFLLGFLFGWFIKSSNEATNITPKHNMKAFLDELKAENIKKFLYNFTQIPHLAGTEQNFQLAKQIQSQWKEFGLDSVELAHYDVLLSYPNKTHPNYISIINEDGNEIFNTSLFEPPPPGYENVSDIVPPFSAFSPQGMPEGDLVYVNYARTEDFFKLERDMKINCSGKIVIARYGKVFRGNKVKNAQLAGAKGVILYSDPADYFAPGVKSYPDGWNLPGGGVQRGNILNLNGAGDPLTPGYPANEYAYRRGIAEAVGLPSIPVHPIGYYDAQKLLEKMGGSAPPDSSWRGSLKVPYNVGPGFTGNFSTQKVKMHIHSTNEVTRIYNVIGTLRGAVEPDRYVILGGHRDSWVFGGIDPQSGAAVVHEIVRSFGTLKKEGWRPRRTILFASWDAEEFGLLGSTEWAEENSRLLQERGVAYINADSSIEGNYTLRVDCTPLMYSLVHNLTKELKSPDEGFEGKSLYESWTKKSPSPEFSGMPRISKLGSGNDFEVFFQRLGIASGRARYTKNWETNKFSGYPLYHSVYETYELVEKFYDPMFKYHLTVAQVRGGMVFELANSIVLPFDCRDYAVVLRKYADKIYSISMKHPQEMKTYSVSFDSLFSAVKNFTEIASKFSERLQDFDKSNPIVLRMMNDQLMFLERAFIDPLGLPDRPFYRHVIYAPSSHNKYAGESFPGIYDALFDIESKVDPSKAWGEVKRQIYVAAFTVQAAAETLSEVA
Ki (PSMA) [nM],IC50 (PSMA) [nM],Lipophilicity logDpH 7.4 n-octanol/PBS [3],Compound,Specifically Cell Surface Bound (LNCaP cells [2]) [%AR/10^5 Cells],Specifically Internalized (LNCaP cells [2]) [%AR/10^5 Cells],other results
4.03 ± 0.95,4.83 ± 0.93,-2.36 ± 0.03,"O=C(O)CCC(NC(=O)NC(CCCCNC(=O)C(Cc1ccc2ccccc2c1)NC(=O)C1CCC(CNC(=O)C(CCCCNC(=S)Nc2ccc3c(c2)C(=O)OC32c3ccc(O)cc3Oc3cc(O)ccc32)NC(=O)CN2CCN(CC(=O)O)CCN(CC(=O)O)CCN(CC(=O)O)CC2)CC1)C(=O)O)C(=O)O (stereo not drawn) [PSMA-921, Glu-urea-Lys-2-Nal-Chx-Lys(Fluorescein)-DOTA]",7.06 ± 3.32,15.82 ± 6.18,
5.78 ± 1.32,6.93 ± 1.29,-2.07 ± 0.06,"O=C(O)CCC(NC(=O)NC(CCCCNC(=O)C(Cc1ccc2ccccc2c1)NC(=O)C1CCC(CNC(=O)C(CCCCNC(=S)Nc2ccc3c(c2)C(=O)OC32c3ccc(O)cc3Oc3cc(O)ccc32)NC(=O)C(CCC(=O)O)NC(=O)CN2CCN(CC(=O)O)CCN(CC(=O)O)CCN(CC(=O)O)CC2)CC1)C(=O)O)C(=O)O (stereo not drawn) [PSMA-922, Glu-urea-Lys-2-Nal-Chx-Lys(Fluorescein)-E1-DOTA]",6.33 ± 1.53,13.74 ± 5.75,
5.95 ± 1.99,7.14 ± 1.95,-2.16 ± 0.04,"O=C(O)CCC(NC(=O)NC(CCCCNC(=O)C(Cc1ccc2ccccc2c1)NC(=O)C1CCC(CNC(=O)C(CCCCNC(=S)Nc2ccc3c(c2)C(=O)OC32c3ccc(O)cc3Oc3cc(O)ccc32)NC(=O)C(CCC(=O)O)NC(=O)C(CCC(=O)O)NC(=O)CN2CCN(CC(=O)O)CCN(CC(=O)O)CCN(CC(=O)O)CC2)CC1)C(=O)O)C(=O)O (stereo not drawn) [PSMA-923, Glu-urea-Lys-2-Nal-Chx-Lys(Fluorescein)-E2-DOTA] ({DOTA}-EEK(FITC)[X1][2Nal]-X2; configuration not given here)",9.82 ± 0.67,21.55 ± 9.24,
3.87 ± 1.76,4.64 ± 1.23,-2.38 ± 0.07,"O=C(O)CCC(NC(=O)NC(CCCCNC(=O)C(Cc1ccc2ccccc2c1)NC(=O)C1CCC(CNC(=O)C(CCCCNC(=O)CN2CCN(CC(=O)O)CCN(CC(=O)O)CCN(CC(=O)O)CC2)NC(=S)Nc2ccc3c(c2)C(=O)OC32c3ccc(O)cc3Oc3cc(O)ccc32)CC1)C(=O)O)C(=O)O (stereo not drawn) [PSMA-924, Glu-urea-Lys-2-Nal-Chx-Lys(DOTA)-Fluorescein]",1.11 ± 0.81,1.11 ± 0.94,
6.77 ± 3.66,8.12 ± 3.59,-2.05 ± 0.02,"O=C(O)CCC(NC(=O)NC(CCCCNC(=O)C(Cc1ccc2ccccc2c1)NC(=O)C1CCC(CNC(=O)C(CCCCNC(=O)CN2CCN(CC(=O)O)CCN(CC(=O)O)CCN(CC(=O)O)CC2)NC(=O)C(CCC(=O)O)NC(=S)Nc2ccc3c(c2)C(=O)OC32c3ccc(O)cc3Oc3cc(O)ccc32)CC1)C(=O)O)C(=O)O (stereo not drawn) [PSMA-925, Glu-urea-Lys-2-Nal-Chx-Lys(DOTA)-E1- Fluorescein]",2.67 ± 0.95,3.03 ± 2.17,
7.16 ± 2.63,8.59 ± 2.57,-2.13 ± 0.03,"O=C(O)CCC(NC(=O)NC(CCCCNC(=O)C(Cc1ccc2ccccc2c1)NC(=O)C1CCC(CNC(=O)C(CCCCNC(=O)CN2CCN(CC(=O)O)CCN(CC(=O)O)CCN(CC(=O)O)CC2)NC(=O)C(CCC(=O)O)NC(=O)C(CCC(=O)O)NC(=S)Nc2ccc3c(c2)C(=O)OC32c3ccc(O)cc3Oc3cc(O)ccc32)CC1)C(=O)O)C(=O)O (stereo not drawn) [PSMA-926, Glu-urea-Lys-2-Nal-Chx-Lys(DOTA)-E2-Fluorescein] ({FITC}-EEK(DOTA)[X1][2Nal]-X2; configuration not given here)",10.12 ± 4.85,11.86 ± 5.31,

# More lines, now with the values behind:
Compound,Ki (PSMA) [nM],IC50 (PSMA) [nM],Lipophilicity logDpH 7.4 n-octanol/PBS [3],Specifically Cell Surface Bound (LNCaP cells [2]) [%AR/10^5 Cells],Specifically Internalized (LNCaP cells [2]) [%AR/10^5 Cells],other results
CC1(C)C(=CC=C2CCCC(C=CC3=[N+](CCCCCC(=O)[O-])c4ccc(S(=O)(=O)[O-])cc4C3(C)C)=C2Oc2ccc(S(=O)(=O)[O-])cc2)N(CCCCS(=O)(=O)[O-])c2ccc(S(=O)(=O)[O-])cc21.[Na+].[Na+].[Na+].[Na+] [IRDye800CW],,,,,,absorption maximum [1]: 775 nm; emission maximum [1]: 796 nm
O=C([O-])CN1CCN(CC(=O)[O-])CCN(CC(=O)NCC2CCC(C(=O)NC(Cc3ccc4ccccc4c3)C(=O)NCCCCC(NC(=O)NC(CCC(=O)O)C(=O)O)C(=O)O)CC2)CCN(CC(=O)[O-])CC1.[68Ga+3] (stereo not drawn) [[^68Ga]Ga-PSMA-617],,,,,,cell surface binding (LNCaP cells [4]): 11.40 ± 6.60 %ID/10^5 LNCaP cells; specific internalization (LNCaP cells [4]): 16.17 ± 3.66 %ID/10^5 LNCaP cells; logDpH 7.4 [5]: –2.00; tumor uptake ([6]; 1 h p.i.): 8.47 ± 4.09 % ID/g
O=C([O-])CN1CCN(CC(=O)[O-])CCN(CC(=O)NCC2CCC(C(=O)NC(Cc3ccc4ccccc4c3)C(=O)NCCCCC(NC(=O)NC(CCC(=O)O)C(=O)O)C(=O)O)CC2)CCN(CC(=O)[O-])CC1.[177Lu+3] (stereo not drawn) [[^177Lu]Lu-PSMA-617],,,,,,patients with PSA decline greater than 50% [7]: half of the patients; patients with PSA decline greater than 80% [7]: 27%; overall survival [8]: significantly improves overall survival; tolerability of the treatment regimen [8]: very well-tolerated
[^68Ga]Ga-Glu-urea-Lys-(HE)3-HBED-CC-IRDye800CW,,,,,,tumor enhancement after dye conjugation [6]: significantly higher tumor enhancement
[^68Ga]Ga-Glu-urea-Lys-HBED-CC-IRDye800CW,,,,,,tumor enhancement after dye conjugation [6]: significantly higher tumor enhancement

# From publication PMC8954540, “A New Class of PSMA-617-Based Hybrid Molecules for Preoperative Imaging and Intraoperative Fluorescence Navigation of Prostate Cancer” (Pharmaceuticals, 2022)
